Read-outs that look alike come from different tables or passages of the source.

The nature of data set [1]: Microsomal stability, rat liver microsomes. In kind it is in vitro ADME. Also noted: microsomal CLint / half-life: dose or concentration left out as unconfirmed. As to conditions: for CLint scaled: read-out: CLint (ml/min/kg) (Mean ± S.D.); for half-life: rat, liver microsomes, pH 7.4, rat liver microsomes, read-out: t1/2 (min) (Mean ± S.D.). The procedure:
(§1) AM9338 (50 µM) was incubated at 37 °C with mouse, rat or human microsomes (0.5 mg/ml) in 50 mM potassium phosphate buffer, pH 7.4. Samples were taken immediately after the addition of NADPH (final concentration 1 mM) and again after 30 and 60 min of incubation; the reaction was terminated through protein precipitation with ice cold methanol followed by centrifugation at 4000 g for 10 min. The resulting supernatant was analyzed using LC-MS/MS.
(§2) Chromatographic separation of AM9338 and its metabolites was achieved using a Phenomenex Kinetex F5 column (4.6 × 150 mm, 100 Å pore size, 2.6 μm particle size) on a Thermo Accela HPLC (Thermo, San Jose, CA, USA) coupled to an API-4000 Q-Trap (AB Sciex, Concord, Ontario, Canada). Samples were eluted with mobile phases consisting of 0.1 % formic acid in acetonitrile (A) and 0.1 % formic acid in HPLC grade water (B) starting at 10% A for 2.6 min, ramping to 90%A over the next 9.4 min, and holding at 90%A for 2.8 min before returning to initial conditions for a total run time of 18.5 min; the flow rate was 0.8 ml/min and the autosampler and column oven were set to 4°C and 35°C, respectively. The mass spectrometer was operated in electrospray ionization (ESI) positive ion mode with the following conditions: ion spray voltage = 5,500 V; heater temperature = 550 °C; curtain gas = 20 psi; Q2 collision gas = set as high; source gas 1 (GS1) = 50 psi; source gas 2 (GS2) = 55 psi. High purity nitrogen was used as a source and collision gas and the compounds were detected in the multiple reaction monitoring (MRM) mode.
(§3) The susceptibility of AM9338 to CYP enzymes or hydrolytic enzymes was tested at 37°C in human, mouse and rat liver microsomes, in the presence or absence of NADPH. […] The disappearance of AM9338 in microsomes followed a first-order elimination kinetics with low elimination half-life (t1/2 < 4 min) and high intrinsic microsomal clearance of microsomal protein across all three species as shown in Table 1 .

Data set [2] can be described thus: Microsomal stability, human liver microsomes. It counts as in vitro ADME. Also noted: half-life / microsomal CLint: dose or concentration left out as unconfirmed. As to conditions: for half-life: human, liver microsomes, pH 7.4, human liver microsomes, read-out: t1/2 (min) (Mean ± S.D.); for CLint scaled: read-out: CLint (ml/min/kg) (Mean ± S.D.). The procedure: as §1, §2, §3
(In general: Liver microsomes are a subcellular fraction often used to study metabolism.)

Data set [3] in a line: Microsomal stability, mouse liver microsomes. It counts as in vitro ADME. As to conditions: for half-life: mouse, liver microsomes, pH 7.4, mouse liver microsomes, read-out: t1/2 (min) (Mean ± S.D.); for CLint scaled: read-out: CLint (ml/min/kg) (Mean ± S.D.). Details: microsomal CLint / half-life: dose or concentration left out as unconfirmed. The procedure: as §1, §2, §3

Another data set has as its target mCB2 (Mus musculus, UniProt P47936). Kind of data set: CB2 receptor binding affinity (mCB2). The conditions noted are these: stated in introduction, no method or reference given.
Data set [4] is described as follows: Metabolite profile after incubation with pooled mouse liver microsomes (LC-UV/LC-MS). As to conditions: NADPH, 37°C, 60 min. It counts as in vitro ADME. The procedure: as §1
Reconstituted extracts from the microsomal incubations were injected on a Supelco Discovery column C18, 250 × 4.6 mm column (Millipore-Sigma, St Louis, MO) on Thermo Accela HPLC system (Thermo Fisher Scientific, Austin, TX). The column temperature was maintained at 35°C, the flow rate was 0.8 ml/min, the injection volume was 20 µl and UV detector was set at 300 nm, maximal absorbance wavelength for AM9338. […]
The metabolites M3 (trihydroxy), M4 (trihydroxy) and M8 (Ketone-hydroxyl) appear to be the metabolic end products of AM9338. […] The estimated relative percentage of each metabolite was calculated using the UV peak areas at the end of the incubation: M1 (49%), M2 (37%), M3 (1%), M4 (5%), M5 (4%), M7 (3%), M8 (1%), and M9 (2%). […] Human (HLM), Mouse (MLM) and rat liver microsomes (RLM) generated the very similar metabolite profile, with M1 and M2 being the major metabolic products, appearing in similar order of formation and relative quantities. […]

The target of a further data set is hCB2 (Homo sapiens, UniProt P34972). Kind of data set: CB2 receptor binding affinity (hCB2). The conditions noted are these: stated in introduction, no method or reference given.
Data set [5] is described as follows: Non-compartmental pharmacokinetics in mice after i.v. and oral dosing. In kind it is in vivo. As to conditions: for bioavailability: oral 8 mg/kg vs I.V. 2 mg/kg. The procedure:
The non-compartmental pharmacokinetic parameters following intravenous (2 mg/kg, i.v.) and oral (8 mg/kg, p.o.) dosing are presented in Table 2 .

The next data set concerns the target CYP3A4 (Homo sapiens, UniProt P08684). Kind of data set: CYP phenotyping using CYP specific chemical inhibitors. As to conditions: preliminary. In kind it is in vitro ADME.
The mark [6] stands for this setting: mouse, iv, I.V. 2 mg/kg, plasma.
Setting [7] is: mouse, plasma, po, 8 mg/kg, oral 8 mg/kg.

mCB2, sequence (P47936 whole entry): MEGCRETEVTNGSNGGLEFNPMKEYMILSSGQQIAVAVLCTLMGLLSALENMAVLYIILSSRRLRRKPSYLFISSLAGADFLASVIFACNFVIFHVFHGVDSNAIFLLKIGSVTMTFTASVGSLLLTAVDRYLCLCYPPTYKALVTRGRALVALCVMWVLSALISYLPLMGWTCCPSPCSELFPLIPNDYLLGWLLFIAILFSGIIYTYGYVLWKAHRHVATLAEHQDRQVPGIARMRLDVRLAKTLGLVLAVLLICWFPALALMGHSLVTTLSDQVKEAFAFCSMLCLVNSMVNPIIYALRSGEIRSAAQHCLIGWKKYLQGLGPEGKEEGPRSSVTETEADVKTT
hCB2, sequence (P34972 whole entry): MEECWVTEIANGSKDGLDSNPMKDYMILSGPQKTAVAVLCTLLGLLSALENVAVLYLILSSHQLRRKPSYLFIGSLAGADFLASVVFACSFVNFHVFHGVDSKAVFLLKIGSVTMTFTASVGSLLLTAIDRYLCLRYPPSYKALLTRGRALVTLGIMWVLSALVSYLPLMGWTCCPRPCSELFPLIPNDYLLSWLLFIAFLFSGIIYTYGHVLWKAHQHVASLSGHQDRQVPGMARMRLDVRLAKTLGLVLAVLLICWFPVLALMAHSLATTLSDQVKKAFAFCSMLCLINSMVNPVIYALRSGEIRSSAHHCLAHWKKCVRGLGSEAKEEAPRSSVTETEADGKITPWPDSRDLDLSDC
CYP3A4, sequence (P08684 whole entry): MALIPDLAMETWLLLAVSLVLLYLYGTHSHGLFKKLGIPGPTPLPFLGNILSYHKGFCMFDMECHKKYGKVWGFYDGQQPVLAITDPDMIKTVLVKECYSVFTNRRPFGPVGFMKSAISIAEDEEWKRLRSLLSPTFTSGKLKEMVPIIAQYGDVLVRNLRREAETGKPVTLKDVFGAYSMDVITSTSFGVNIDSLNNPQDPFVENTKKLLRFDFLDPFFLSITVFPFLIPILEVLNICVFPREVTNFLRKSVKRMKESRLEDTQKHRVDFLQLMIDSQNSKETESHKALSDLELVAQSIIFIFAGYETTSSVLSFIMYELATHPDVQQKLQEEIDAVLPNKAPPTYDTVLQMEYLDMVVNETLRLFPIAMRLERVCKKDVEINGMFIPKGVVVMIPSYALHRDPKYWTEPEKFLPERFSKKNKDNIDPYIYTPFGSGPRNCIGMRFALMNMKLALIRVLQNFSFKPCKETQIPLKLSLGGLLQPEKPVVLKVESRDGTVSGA

Take `O=C(NC12CC3CC(C1)C(O)C(C2)C3O)c1nn(CCCn2ccnn2)c2ccccc12` (stereo not shown) [M2]: the CLint scaled stood at 93 ± 10 mL/min/kg in data set [1] (pH 7.4, rat liver microsomes); 54 ± 4 mL/min/kg in data set [2] (pH 7.4, human liver microsomes); 520 ± 54 mL/min/kg in data set [3] (pH 7.4, mouse liver microsomes). In addition, the half-life in data set [1] (37°C, presence of NADPH) came to 26.8 ± 6.6 min; in data set [2] (37°C, presence of NADPH) it was 30.8 ± 6.7 min; in data set [3] (37°C, presence of NADPH), 10.5 ± 0.64 min.

`O=C(NC12CC3CC(CC(C3)C1)C2)c1nn(CCCn2ccnn2)c2ccccc12` [AM9338, 1-(3-(1H-1,2,3-triazol-1-yl)propyl)-N-(adamantan-1-yl)-1H-indazole-3-carboxamide]: the Ki (usually a measure of affinity in units of concentration, obtained from inhibition or displacement) on mCB2 was 2.3 nM; on hCB2 it was 3 nM. Besides, the microsomal CLint in data set [1] (pH 7.4, rat liver microsomes, presence of NADPH, read-out: CLint (µl/min/mg) (Mean ± S.D.)) came to 830 ± 136 µL/min/mg; in data set [2] (pH 7.4, human liver microsomes, presence of NADPH, read-out: CLint (µl/min/mg) (Mean ± S.D.)) it was 420 ± 93 µL/min/mg; in data set [3] (pH 7.4, mouse liver microsomes, presence of NADPH, read-out: CLint (µl/min/mg) (Mean ± S.D.)), 2950 ± 282 µL/min/mg. In addition, the “Stability in absence of NADPH” value in data set [1] (rat microsomes, 37°C, no NADPH, tested up to 2 h) is “stable”; in data set [2] (human microsomes, 37°C, no NADPH, tested up to 2 h), “stable”; in data set [3] (mouse microsomes, 37°C, no NADPH, tested up to 2 h), “stable”. The “Extent of metabolism of parent” value in data set [4] is given as “almost completely metabolized”. In data set [5] (I.V. 2 mg/kg), the “Systemic plasma clearance as share of hepatic blood flow” value is 85 % of hepatic blood flow. The same molecule returned a t1/2 in data set [5] (I.V. 2 mg/kg, terminal half-life, 2 mg/kg) of 16.1 min. In addition, the AUC – broadly, concentration integrated over time – is 438 ng·h/mL in data set [5] (setting [6]) and 267 ng·h/mL in data set [5] (mouse, oral 8 mg/kg, plasma). Also, the C0 in data set [5] (setting [6]) is 2110 ng/mL. The molecule further had a clearance in data set [5] (setting [6]) of 75.9 mL/min/kg. Besides, the half-life is 16 min in data set [5] (mouse, plasma, iv, 2 mg/kg, I.V. 2 mg/kg, terminal half-life); 113 min in data set [5] (setting [7]); < 4 min in data set [2] (37°C, presence of NADPH). Further, the Vd stood at 1.76 L/kg in data set [5] (mouse, plasma, iv, I.V. 2 mg/kg, read-out: Vd) and 79.9 L/kg in data set [5] (oral 8 mg/kg). Besides, the Tmax – broadly, the time from dosing to the highest level – in data set [5] (mouse, plasma, oral 8 mg/kg) is 60 min. For the same molecule, the bioavailability (in general, the share of a dose that reaches the circulation, judged against a reference dose that is usually intravenous) in data set [5] (mouse, plasma, oral, 8 mg/kg, read-out: Bioavailability) was ~15%; in data set [5], 15.5%. In data set [5] (setting [7]), the peak level (Cmax) was 240 ng/mL. The CL in data set [5] (oral 8 mg/kg) turned out to be 489 mL/min/kg. In data set [5] (oral 8 mg/kg, plasma, 8 mg/kg), the “Cmax (Oral)” value was 239 ± 230 ng/mL. Besides, on CYP3A4, the “Major CYP isoform responsible for the adamantyl oxidations” value is recorded as “CYP3A4”. Also, the “t1/2 (min) (Mean ± S.D.)” value in data set [2] (human liver microsomes, 37°C, presence of NADPH) came out at 3.3 ± 0.6 min.

Take `O=C(NC12CC3CC(C1)C(O)C(C3)C2)c1nn(CCCn2ccnn2)c2ccccc12` (stereo not shown) [M1]: the CLint scaled in data set [1] (pH 7.4, rat liver microsomes) was determined as 565 ± 4.4 mL/min/kg; in data set [2] (pH 7.4, human liver microsomes), 121 ± 20 mL/min/kg; in data set [3] (pH 7.4, mouse liver microsomes), 2730 ± 223 mL/min/kg. The half-life stood at 4.41 ± 0.31 min in data set [1] (37°C, presence of NADPH); 13.1 ± 2.48 min in data set [2] (37°C, presence of NADPH); 2.02 ± 0.11 min in data set [3] (37°C, presence of NADPH).

For the origin of these results see paper PMC7556269, “Metabolic Profiling of a CB2 Agonist, AM9338, Using LC-MS and Microcoil-NMR: Identification of a Novel Dihydroxy Adamantyl Metabolite” (Frontiers in Pharmacology, 2020).
